From patent US20160047819A1, “METHOD FOR DIAGNOSING VAGINAL INFECTIONS” (priority 2013, published 2016)

System: vaginal proteome (human proteins in vaginal fluid)
Assay: MS/MS proteomic analysis of vaginal fluid pools, BV-affected women before (BV) and after rifaximin/placebo treatment: human proteins
Assay type: in vivo
Procedure: Proteomic analysis was performed on 9 pools of vaginal isolates, grouped according to the status of the BV infection: • H pool (from 41 healthy women); BV pool (from 39 BV-affected women); • A-R pool (from 2 women who were in remission after rifaximin treatment-group A); • A-N pool (from 8 women who were not in remission after rifaximin treatment-group A); • B-R pool (from 5 women who were in remission after rifaximin treatment-group B); • B-N pool (from 5 women who were not in remission after rifaximin treatment-group B); • C-R pool (from 4 women who were in remission after rifaximin treatment-group C); • C-N (from 5 women who were not in remission after rifaximin treatment-group C); • D-N (from 10 women who were not in remission after placebo treatment-group D). Scheme of the vaginal fluids collected for testing the diagnostic method is represented in FIG. 1.
In these figures are reported the peptides in the fractionated pools of healthy women, women affected by BV and peptides of women treated with rifaximin. The treatment with rifaximin was at dosage of 100 mg/day for 5 days; (remission, A-R; no remission, A-N), 25 mg/5 days (remission, B-R; no remission, B-N), 100 mg/2 days (remission, C-R; no remission, C-N), and placebo for 5 days (D-N). Two types of comparisons were carried out: (i) between fractionated pools of proteins from vaginal fluid of healthy women (HF) versus fractionated pool of proteins from vaginal fluid of women affected by bacterial vaginosis (BVF); (ii) between whole pools of proteins from vaginal fluid of women affected by BV treated by administering different doses of rifaximin or placebo before (BV) and after (A-R, A-N, B-R, B-N, C-R, C-N, D-N) treatment. Fractioned pools of proteins are obtained, e.g., by separating the proteins by separation on membrane filtration with different membrane porosity, prior to MS/MS analysis.
Nine volumes of acetone: HCl (10:1) were added to the supernatant of the vaginal rinsing and proteins were precipitated by centrifuging at 12000 g for 10 min. The protein pellet was dissolved in 1 mL of 70% ethanol and the sample was spun at 12000 g for 10 min. One mL of acetone was added and the proteins were further precipitated by centrifugation at 12000 g for 5 min. After removing supernatant, pellet was dried by SpeedVac concentrator (Thermo Savant ISS110, Thermo Fisher Scientific, Waltham, Mass.) and then stored at −20° C.
Protein extract was quantified using the 2-D Quant Kit (GE Healthcare, Uppsala, Sweden) according to the manufacturer's instructions.
Patients who were diagnosed for BV at the study visit V1 were included in a multicentre, double-blind, randomised, placebo-controlled study (EudraCT: 2009-011826-32), that was performed to compare the efficacy of different doses of rifaximin vaginal tablets versus placebo for the treatment of BV. The patients underwent a randomisation visit and were distributed into 4 treatment groups: group A received 100 mg rifaximin vaginal tablet once daily for 5 days (n=10), group B received 25 mg rifaximin vaginal tablet once daily for 5 days (n=10), group C received 100 mg rifaximin vaginal tablet once daily for the first 2 days and placebo vaginal tablet for the remaining 3 days (n=9), group D received placebo vaginal tablet once daily for 5 days (n=10). Study medication was administered intra-vaginally at bedtime. After 7 to 10 days from the end of the therapy a follow-up visit (V3) was performed. Remission was evaluated at V3 according to Amsel's criteria (<3) and Gram stain Nugent score (≦3) (Table 1).
Standardized vaginal rinsings with 2 mL of saline were collected for analysis at V1 and V3 by flushing and re-aspirating the fluid through a 22 Gauge needle in the left, central and right upper vaginal vaults. The vaginal rinsings were subsequently stored at −80° C. until use.
MS/MS analysis was carried out for H and BV pools and for the whole BV, A-R, A-N, B-R, B-N, C-R, C-N and D-N pools containing 50 μg of protein each. […]

CO[C@H]1/C=C/O[C@@]2(C)Oc3c(C)c(O)c4c(O)c(c5c(nc6cc(C)ccn65)c4c3C2=O)NC(=O)/C(C)=C\C=C\[C@H](C)[C@H](O)[C@@H](C)[C@@H](O)[C@@H](C)[C@H](OC(C)=O)[C@@H]1C [rifaximin]
Ratio X/H Sciellin (O95171) (pool C-N after treatment): 0.0
Ratio X/H Semenogelin-2 (Q02383) (pool C-N after treatment): −1.8
Ratio X/H Serine protease 27 (Q9BQR3) (pool C-N after treatment): 0.0
Ratio X/H Serine/threonine-protein kinase ULK1 (O75385) (pool C-N after treatment): −1.7
Ratio X/H Serotransferrin (P02787) (pool C-N after treatment): −1.5
Ratio X/H Serpin B3 (P29508) (pool C-N after treatment): 1.6
Ratio X/H Serpin B4 (P48594) (pool C-N after treatment): 0.0
Ratio X/H Serpin B5 (P36952) (pool C-N after treatment): −2.6
Ratio X/H Serpin B6 (P35237) (pool C-N after treatment): 0.0
Ratio X/H Serpin B9 (P50453) (pool C-N after treatment): 0.0
Ratio X/H Serpin B12 (Q96P63) (pool C-N after treatment): 0.0
Ratio X/H Serpin B13 (Q9UIV8) (pool C-N after treatment): 0.0
Ratio X/H Serum albumin (P02768) (pool C-N after treatment): −1.6
Ratio X/H Serum paraoxonase/arylesterase 1 (P27169) (pool C-N after treatment): 1.5
Ratio X/H Small proline-rich protein 3 (Q9UBC9) (pool C-N after treatment): 1.7
Ratio X/H Stanniocalcin-1 (P52823) (pool C-N after treatment): 4.0
Ratio X/H Sulfhydryl oxidase 1 (O00391) (pool C-N after treatment): 0.0
Ratio X/H Superoxide dismutase [Cu—Zn] (P00441) (pool C-N after treatment): 0.0
Ratio X/H Suprabasin (Q6UWP8) (pool C-N after treatment): 3.9
Ratio X/H Syntenin-1 (O00560) (pool C-N after treatment): 0.0
Ratio X/H Talin-1 (Q9Y490) (pool C-N after treatment): 0.0
Ratio X/H Tctex1 domain-containing protein 2 (Q8WW35) (pool C-N after treatment): −13.6
Ratio X/H Teneurin-3 (Q9P273) (pool C-N after treatment): 10.2
Ratio X/H Thioredoxin (P10599) (pool C-N after treatment): 0.0
Ratio X/H Transaldolase (P37837) (pool C-N after treatment): −2.2
Ratio X/H Transmembrane protease serine 11D (O60235) (pool C-N after treatment): 0.0
Ratio X/H Transthyretin (P02766) (pool C-N after treatment): −1.8
Ratio X/H Tumor protein D54 (O43399) (pool C-N after treatment): 0.0
Ratio X/H UTP--glucose-1-phosphate uridylyltransferase (Q16851) (pool C-N after treatment): 0.0
Ratio X/H UV excision repair protein RAD23 homolog B (P54727) (pool C-N after treatment): −1.5
Ratio X/H Uronyl 2-sulfotransferase (Q9Y2C2) (pool C-N after treatment): −917.5
Ratio X/H Versican core protein (P13611) (pool C-N after treatment): 0.0
Ratio X/H Vinculin (P18206) (pool C-N after treatment): 0.0
Ratio X/H Vitamin D-binding protein (P02774) (pool C-N after treatment): 0.0
Ratio X/H Werner syndrome ATP-dependent helicase (Q14191) (pool C-N after treatment): 12.4
Ratio X/H Zinc finger protein 185 (O15231) (pool C-N after treatment): 1.5
Ratio X/H Zinc finger protein 335 (Q9H4Z2) (pool C-N after treatment): 0.0
Ratio X/H Zinc-alpha-2-glycoprotein (P25311) (pool C-N after treatment): 0.0
Ratio X/H Zyxin (Q15942) (pool C-N after treatment): 2.0
Ratio X/H Sciellin (O95171) (pool C-R after treatment): 0.0
Ratio X/H Semenogelin-2 (Q02383) (pool C-R after treatment): 0.0
Ratio X/H Serine protease 27 (Q9BQR3) (pool C-R after treatment): −1.5
Ratio X/H Serine/threonine-protein kinase ULK1 (O75385) (pool C-R after treatment): −7.4
Ratio X/H Serotransferrin (P02787) (pool C-R after treatment): 0.0
Ratio X/H Serpin B3 (P29508) (pool C-R after treatment): 2.6
Ratio X/H Serpin B4 (P48594) (pool C-R after treatment): 0.0
Ratio X/H Serpin B5 (P36952) (pool C-R after treatment): 2.0
Ratio X/H Serpin B6 (P35237) (pool C-R after treatment): −2.2
Ratio X/H Serpin B9 (P50453) (pool C-R after treatment): −6.6
Ratio X/H Serpin B12 (Q96P63) (pool C-R after treatment): −1.7
Ratio X/H Serpin B13 (Q9UIV8) (pool C-R after treatment): 0.0
Ratio X/H Serum albumin (P02768) (pool C-R after treatment): −2.1
Ratio X/H Serum paraoxonase/arylesterase 1 (P27169) (pool C-R after treatment): 0.0
Ratio X/H Small proline-rich protein 3 (Q9UBC9) (pool C-R after treatment): 4.4
Ratio X/H Stanniocalcin-1 (P52823) (pool C-R after treatment): 13.3
Ratio X/H Sulfhydryl oxidase 1 (O00391) (pool C-R after treatment): −1.6
Ratio X/H Superoxide dismutase [Cu—Zn] (P00441) (pool C-R after treatment): 0.0
Ratio X/H Suprabasin (Q6UWP8) (pool C-R after treatment): 14.4
Ratio X/H Syntenin-1 (O00560) (pool C-R after treatment): −2.3
Ratio X/H Talin-1 (Q9Y490) (pool C-R after treatment): 0.0
Ratio X/H Tctex1 domain-containing protein 2 (Q8WW35) (pool C-R after treatment): 0.0
Ratio X/H Teneurin-3 (Q9P273) (pool C-R after treatment): 0.0
Ratio X/H Thioredoxin (P10599) (pool C-R after treatment): 0.0
Ratio X/H Transaldolase (P37837) (pool C-R after treatment): 2.4
Ratio X/H Transmembrane protease serine 11D (O60235) (pool C-R after treatment): 0.0
Ratio X/H Transthyretin (P02766) (pool C-R after treatment): 0.0
Ratio X/H Tumor protein D54 (O43399) (pool C-R after treatment): 0.0
Ratio X/H UTP--glucose-1-phosphate uridylyltransferase (Q16851) (pool C-R after treatment): 0.0
Ratio X/H UV excision repair protein RAD23 homolog B (P54727) (pool C-R after treatment): −2.2
Ratio X/H Uronyl 2-sulfotransferase (Q9Y2C2) (pool C-R after treatment): −7.7
Ratio X/H Versican core protein (P13611) (pool C-R after treatment): 0.0
Ratio X/H Vinculin (P18206) (pool C-R after treatment): 0.0
Ratio X/H Vitamin D-binding protein (P02774) (pool C-R after treatment): 0.0
Ratio X/H Werner syndrome ATP-dependent helicase (Q14191) (pool C-R after treatment): 209.6
Ratio X/H Zinc finger protein 185 (O15231) (pool C-R after treatment): 1.8
Ratio X/H Zinc finger protein 335 (Q9H4Z2) (pool C-R after treatment): 0.0
Ratio X/H Zinc-alpha-2-glycoprotein (P25311) (pool C-R after treatment): 0.0
Ratio X/H Zyxin (Q15942) (pool C-R after treatment): 0.0
